Laboratory results taken from patent publication US20260014178A1, “COMPOSITIONS AND USES THEREOF” (Optibiotix Limited, priority 2022, published 2026).

Legend:
gut microbiome [1] = experiment: pH-controlled anaerobic faecal cultures, organic acid production; assay type: cell-based; conditions: FIG. 3
Method: pH-controlled, anaerobic, faecal cultures were carried out to evaluate the impact of each test carbohydrate on gut microbiome composition and activity (organic acid production). The test carbohydrates were as follows: Inulin, Fructooligosaccharides (FOS), Xylooligosaccharides (XOS), gentiooligosaccharides (GeOS) and cellobiose.
(§1) All carbohydrates were tested in parallel, using the same faecal sample from a healthy donor. Fermentations were repeated using the faecal samples of each of 6 donors. Faeces in the absence of test substrate were used as the negative control in each run.

gut microbiome [2] = experiment: Non pH-controlled anaerobic faecal cultures, gas production; assay type: cell-based; conditions: 6 donors, FIG. 1
Method: Non pH-controlled, anaerobic, faecal cultures were investigated to evaluate the rate of gas production and cumulative gas production over 24 h in the presence of each test substrate.
as §1

For `O=C[C@H](O)[C@@H](O)[C@H](O[C@@H]1O[C@H](CO)[C@@H](O)[C@H](O)[C@H]1O)[C@H](O)CO` [Cellobiose, cellobiose], the “lactate production / accumulation” value (gut microbiome [1]) was “high levels” and the “rate of gas production” value (gut microbiome [2]) was “significantly higher compared to all test substrates”.
